In PubChem BioAssay (NCI):
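Growth conditions: 96-well plates. Treatment: test compound, 48 hours, 5 concentrations. Analysis: linear interpolation between bracketing concentrations; unreached endpoints set to highest concentration. GI50: concentration for 50% inhibition of growth. At the TGI there is no net growth.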

Columns and labels:
Assay in all cases: DTP human tumour cell line panel, 48 h
[1] = test system: NCI-H460 lung
[2] = test system: HCT-15 colon
[3] = test system: MDA-MB-435
[4] = test system: SNB-75 CNS
[5] = test system: MDA-MB-231 breast
[6] = test system: SF-268 CNS
[7] = test system: OVCAR-3 ovarian
[8] = test system: CAKI-1 renal
[9] = test system: HS 578T breast
[10] = test system: SK-MEL-2 melanoma
[11] = test system: COLO 205 colon
[12] = test system: MCF7 breast
[13] = test system: SK-MEL-5 melanoma
[14] = test system: ACHN renal
[15] = test system: OVCAR-4 ovarian
[16] = test system: T-47D breast
[17] = test system: NCI-H23 lung
[18] = test system: UACC-257 melanoma
[19] = test system: HOP-62 NSCLC
[20] = test system: NCI-H226 lung
[21] = test system: A549 NSCLC
[22] = test system: CCRF-CEM leukemia
[23] = test system: RXF 393 renal
[24] = test system: TK-10 renal
[25] = test system: SR leukemia
[26] = test system: SN12C renal
[27] = test system: HL-60(TB) leukemia
[28] = test system: MOLT-4 leukemia
[29] = test system: SF-539 CNS
[30] = test system: NCI-H522 lung
[31] = test system: SF-295 CNS
[32] = test system: RPMI-8226 leukemia
[33] = test system: U251 CNS
[34] = test system: 786-0 renal
[35] = test system: UACC-62 melanoma
[36] = test system: BT-549 breast
[37] = test system: HCT-116 colon
[38] = test system: SW-620 colon
[39] = test system: UO-31 renal
[40] = test system: OVCAR-5 ovarian
[41] = test system: SNB-19 CNS
[42] = test system: EKVX NSCLC
[43] = test system: HT29 colon
[44] = test system: PC-3 prostate
[45] = test system: SK-OV-3 ovarian
[46] = test system: K-562 leukemia
[47] = test system: IGROV1 ovarian
[48] = test system: SK-MEL-28 melanoma
[49] = test system: M14 melanoma
[50] = test system: KM12 colon
[51] = test system: DU-145 prostate
[52] = test system: NCI/ADR-RES ovarian
[53] = test system: MALME-3M melanoma
[54] = test system: HOP-92 NSCLC
[55] = test system: A498 renal
[56] = test system: LOX IMVI melanoma
[57] = test system: OVCAR-8 ovarian
[58] = test system: HCC-2998 colon
[59] = test system: MDA-MB-468 breast

Molecule Cc1ccc(C(=O)CSc2nnc(-c3c[nH]c4ccccc34)n2-c2ccccc2)cc1 has a GI50 [1] of 15.2 µM, a TGI [1] of 31 µM and a GI50 [2] of 22.6 µM. The TGI [2] was greater than 100 µM, the GI50 [3] was 22.8 µM and the TGI [3] was 65.4 µM. For the same molecule, the GI50 [4] was 12.9 µM, the TGI [4] was 29.6 µM and the GI50 [5] was 15.4 µM. It also gave a TGI [5] of 32.6 µM, a GI50 [6] of 24.2 µM and a TGI [6] of 78.9 µM. The GI50 [7] was 18 µM, the TGI [7] was 43.3 µM and the GI50 [8] was 14.9 µM. It also gave a TGI [8] of 29.8 µM, a GI50 [9] of 14.1 µM and a TGI [9] of 56.3 µM. For the same molecule, the GI50 [10] was 30.2 µM, the TGI [10] was greater than 100 µM and the GI50 [11] was 34.4 µM. It also gave a TGI [11] greater than 100 µM, a GI50 [12] of 15.7 µM and a TGI [12] of 39.2 µM. For the same molecule, the GI50 [13] was 16.5 µM, the TGI [13] was 39.1 µM and the GI50 [14] was 13.7 µM. It also gave a TGI [14] of 29.2 µM, a GI50 [15] of 14.5 µM and a TGI [15] of 41.5 µM. The GI50 [16] was 24.9 µM, the TGI [16] was greater than 100 µM and the GI50 [17] was 13.7 µM. The TGI [17] was 27.5 µM, the GI50 [18] was 28.9 µM and the TGI [18] was greater than 100 µM. For the same molecule, the GI50 [19] was 16.1 µM, the TGI [19] was 35.9 µM and the GI50 [20] was 9.22 µM. For the same molecule, the TGI [20] was 26.1 µM, the GI50 [21] was 13.9 µM and the TGI [21] was 48.5 µM. It also gave a GI50 [22] of 54.4 µM, a TGI [22] greater than 100 µM and a GI50 [23] of 13.6 µM. For the same molecule, the TGI [23] was 28.9 µM, the GI50 [24] was 23.2 µM and the TGI [24] was 44.4 µM. It also gave a GI50 [25] of 42 µM, a TGI [25] greater than 100 µM and a GI50 [26] of 19.4 µM. The TGI [26] was 48.9 µM, the GI50 [27] was 30.8 µM and the TGI [27] was greater than 100 µM. The GI50 [28] was 21.8 µM, the TGI [28] was greater than 100 µM and the GI50 [29] was 15 µM. For the same molecule, the TGI [29] was 28.5 µM, the GI50 [30] was 16.3 µM and the TGI [30] was 43.7 µM. It also gave a GI50 [31] of 12.6 µM, a TGI [31] of 25.9 µM and a GI50 [32] of 29.8 µM. The TGI [32] was greater than 100 µM, the GI50 [33] was 23.6 µM and the TGI [33] was 65.6 µM. For the same molecule, the GI50 [34] was 14.7 µM, the TGI [34] was 31.2 µM and the GI50 [35] was 15.3 µM. It also gave a TGI [35] of 38.1 µM, a GI50 [36] of 25.1 µM and a TGI [36] of 46.7 µM. For the same molecule, the GI50 [37] was 18.7 µM, the TGI [37] was 60.4 µM and the GI50 [38] was 30.3 µM. It also gave a TGI [38] greater than 100 µM, a GI50 [39] of 14.2 µM and a TGI [39] of 31.4 µM. It also gave a GI50 [40] of 19.4 µM, a TGI [40] of 37.2 µM and a GI50 [41] of 15.8 µM. The TGI [41] was 34.5 µM, the GI50 [42] was 19 µM and the TGI [42] was 98.9 µM. It also gave a GI50 [43] of 15.6 µM, a TGI [43] of 50.5 µM and a GI50 [44] of 12.4 µM. The TGI [44] was 37.8 µM, the GI50 [45] was 17 µM and the TGI [45] was 33.1 µM. The GI50 [46] was 22.1 µM, the TGI [46] was greater than 100 µM and the GI50 [47] was 16.1 µM. It also gave a TGI [47] of 31.3 µM, a GI50 [48] of 19.6 µM and a TGI [48] of 52.1 µM. For the same molecule, the GI50 [49] was 32.1 µM, the TGI [49] was greater than 100 µM and the GI50 [50] was 36.1 µM. It also gave a TGI [50] greater than 100 µM, a GI50 [51] of 44.3 µM and a TGI [51] greater than 100 µM. For the same molecule, the GI50 [52] was 11.9 µM, the TGI [52] was 30.2 µM and the GI50 [53] was 16.2 µM. For the same molecule, the TGI [53] was 36.2 µM, the GI50 [54] was 14.7 µM and the TGI [54] was 34.7 µM. The GI50 [55] was 22.1 µM, the TGI [55] was 69.4 µM and the GI50 [56] was 14.3 µM. The TGI [56] was 27.3 µM, the GI50 [57] was 24.5 µM and the TGI [57] was greater than 100 µM. The GI50 [58] was 20 µM, the TGI [58] was 51.7 µM and the GI50 [59] was 12.8 µM. The TGI [59] was 32.3 µM.
